Data set [1] concerns dog. Conditions: Subchronic oral toxicity in nonrodent, beagle, Feed, dose end: 90 day, group: systemic, systemic / hematology / erythrocyte (rbc) count differential / erythrocyte (rbc) + systemic / hematology / mean corpuscular (cell) volume (….
Data set [2] deals with mouse. Conditions: Carcinogenicity, b6c3f1, Oral, Feed, dose end: 101 week, group: systemic.
Data set [3] has as its system rat. Conditions: Carcinogenicity, fischer, Oral, Feed, dose end: 101 week, group: systemic.
Data set [4] concerns rat. Conditions: Developmental neurotoxicity study; sprague dawley; Oral; Gavage/Intubation; dose end: 140 PND; group: cannot be grouped; systemic / in life observation / body weight / body weight + developmental / offspring survival late / [other] / [other] + systemic / in ….
Data set [5] deals with dog. Conditions: Chronic toxicity, beagle, Oral, Feed, dose end: 12 month, group: systemic.
For data set [6], the system named is rat. Conditions: Peri- and post-natal toxicity study (Segment III), sprague dawley, Oral, Gavage/Intubation, dose end: 42 PND.
In data set [7] the test system is dog. Conditions: Chronic toxicity; beagle; Oral; Feed; dose end: 12 month; group: systemic; systemic / pathology microscopic / adrenal gland / fatty change + systemic / pathology microscopic / adrenal gland / hyperplasia + systemic….
In data set [8] the test system is dog. Conditions: Chronic toxicity, beagle, Oral, Feed, dose end: 52 week, group: systemic.
The subject of data set [9] is dog. Conditions: Subchronic oral toxicity in nonrodent, beagle, Feed, dose end: 13 week, group: systemic, systemic / hematology / erythrocyte (rbc) count differential / erythrocyte (rbc) + systemic / in life observation / body weight / body ….
Data set [10] concerns rat. Conditions: Subchronic oral toxicity in rodents, sprague dawley, Feed, dose end: 13 week, group: systemic, systemic / clinical chemistry / thyroxine (t4) / thyroxine (t4).
In data set [11] the test system is rat. Conditions: Combined chronic toxicity/carcinogenicity, sprague dawley, Oral, Feed, dose end: 2 year, group: systemic.
Data set [12] concerns rat. Conditions: Prenatal developmental toxicity study, sprague dawley, Oral, Gavage/Intubation, dose end: 15 GD.
Data set [13] deals with rat. Conditions: Prenatal developmental toxicity study, sprague dawley, Oral, Gavage/Intubation, dose end: 15 GD. The source holds these as a separate data set.
The test system of data set [14] is mouse. Conditions: Subchronic oral toxicity in rodents, cd1, Feed, dose end: 90 day, group: systemic, systemic / clinical chemistry / aminopyrine-n-demethylase / aminopyrine-n-demethylase + systemic / clinical chemistry / p-nitroanisole ….
Data set [15] relates to rat. Conditions: Developmental neurotoxicity range-finding study; sprague dawley; Oral; Feed; dose end: 21 PND; group: cannot be grouped; systemic / in life observation / body weight / offspring (pup) weight.
Data set [16] has as its system rat. Conditions: Subchronic oral toxicity in rodents, other, Feed, dose end: 90 day, group: systemic.
Data set [17] has as its system rat. Conditions: Subchronic oral toxicity in rodents, other, Feed, dose end: 13 week, group: systemic.
The test system of data set [18] is mouse. Conditions: Carcinogenicity; b6c3f1; Oral; Feed; dose end: 78 week; group: systemic; systemic / pathology microscopic / liver / carcinoma + systemic / in life observation / body weight / body weight + systemic / in life ….
The subject of data set [19] is rat. Conditions: Carcinogenicity, other, Oral, Feed, dose end: 78 week, group: systemic.
The mark [20] stands for this setting: systemic / in life observation / body weight / body weight.
The mark [21] stands for this setting: systemic / in life observation / body weight / body weight + systemic / pathology microscopic / blood vessel / hemangiosarcoma + systemic / ….
The mark [22] stands for this setting: systemic / in life observation / body weight / body weight + systemic / pathology microscopic / liver / neoplastic nodule + systemic / ….
[23] abbreviates: systemic / organ weight / spleen / absolute + systemic / organ weight / spleen / relative to body weight + systemic / pathology microscopic….
Setting [24] is: systemic / pathology gross / liver / accentuated lobular pattern + systemic / pathology microscopic / eye / lesion(s) (nos) + systemic / ….
Where [25] appears, read: group: maternal, reproductive / offspring survival early / dead fetuses / dead fetuses.
The mark [26] stands for this setting: group: offspring, systemic / hematology / leukocyte (wbc) count differential / leukocyte (wbc) + systemic / in life observation / body weight / offspring (pup….
Where [27] appears, read: group: parental, systemic / in life observation / body weight / body weight gain.
Where [28] appears, read: systemic / in life observation / body weight / body weight gain.
[29] abbreviates: systemic / in life observation / body weight / body weight gain + systemic / clinical chemistry / cholesterol / cholesterol + systemic / ….
[30] abbreviates: total + systemic / clinical chemistry / thyroid stimulating hormone (….
Where [31] appears, read: systemic / clinical chemistry / thyroid stimulating hormone (thyrotropin) (tsh) / thyroid stimulating hormone (=thyrotropin) (tsh) + ….
The mark [32] stands for this setting: group: developmental, developmental / developmental malformation / bone / absent + developmental / developmental malformation / bone / bent + developmental / ….
Where [33] appears, read: group: maternal, systemic / in life observation / body weight / body weight + systemic / in life observation / body weight / body weight gain + systemic / in….
[34] abbreviates: group: developmental, developmental / developmental malformation / bone / incomplete ossification.
The mark [35] stands for this setting: group: maternal, systemic / in life observation / body weight / body weight gain + systemic / in life observation / food consumption / food consumption.
The mark [36] stands for this setting: group: maternal, systemic / in life observation / body weight / body weight gain + systemic / in life observation / food consumption / food consumption + ….
Where [37] appears, read: systemic / pathology microscopic / kidney / pigmentation.
[38] abbreviates: systemic / pathology microscopic / kidney / pigmentation + systemic / clinical chemistry / cholesterol / cholesterol + systemic / clinical ….
Setting [39] is: systemic / pathology microscopic / kidney / hypertrophy.
Where [40] appears, read: systemic / pathology microscopic / kidney / hypertrophy + systemic / in life observation / body weight / body weight + systemic / in life ….
The mark [41] stands for this setting: systemic / pathology microscopic / liver / necrosis.
The mark [42] stands for this setting: systemic / pathology microscopic / liver / necrosis + systemic / pathology microscopic / thyroid gland / adenoma + systemic / in life ….

By LOAEL is commonly meant the lowest tested level that showed an adverse finding. The NOAEL is the highest dose or exposure tested at which no adverse effect was seen.

For `O=C(NC(=O)c1c(F)cccc1F)Nc1cc(Cl)c(OC(F)(F)C(F)C(F)(F)F)c(Cl)c1F` (configuration not stated) [Noviflumuron], in the data set with dog [1], the LEL is 113 mg/kg/day, the lowest observed adverse effect level (LOAEL) stood at 113 mg/kg/day, the NEL came out at 1.06 mg/kg/day and the NOAEL came to 1.06 mg/kg/day.

For `Cc1cc(C)c(N)cc1C` [2,4,5-Trimethylaniline], in the data set on mouse [2] (setting [20]), the LOAEL was 7.5 mg/kg/day and the NOAEL is below 7.5 mg/kg/day. Moreover, in the data set with mouse [2] (setting [21]), the LEL worked out at 7.5 mg/kg/day and the NEL was below 7.5 mg/kg/day. Further, in the data set on rat [3] (setting [20]), the LOAEL amounted to 10 mg/kg/day and the NOAEL is below 10 mg/kg/day. Further, in the data set with rat [3] (setting [22]), the LEL came to 10 mg/kg/day and the NEL is below 10 mg/kg/day.

For the compound `O=C1CCC(N2C(=O)c3ccccc3C2=O)C(=O)N1` (configuration not stated) [Thalidomide], in the data set on rat [4], the LEL was determined as 100 mg/kg/day, the LOAEL is above 100 mg/kg/day, the NEL was below 100 mg/kg/day and the NOAEL was at least 100 mg/kg/day.

Turning to `CC(C)(C)C(O)(CCc1ccc(Cl)cc1)Cn1cncn1` (configuration not stated) [Tebuconazole], the LEL in the data set with dog [5] (setting [23]) was 15.5 mg/kg/day; in the data set with rat [6] (setting [25]), 60 mg/kg/day; in the data set with rat [6] (setting [26]), 60 mg/kg/day; with rat [6] (setting [27]), 60 mg/kg/day; in the data set with dog [7] it was 4.39 mg/kg/day. Further, the NEL was below 15.5 mg/kg/day in the data set on dog [5] (setting [23]); 20 mg/kg/day with rat [6] (setting [25]); 20 mg/kg/day with rat [6] (setting [26]); 20 mg/kg/day in the data set with rat [6] (setting [27]); 2.96 mg/kg/day in the data set with dog [7]. Moreover, the LOAEL in the data set with dog [5] (setting [24]) is 77.3 mg/kg/day; in the data set with rat [6] (setting [25]), above 60 mg/kg/day; with rat [6] (setting [26]), above 60 mg/kg/day; with rat [6] (setting [27]) it was above 60 mg/kg/day; in the data set on dog [7], 4.39 mg/kg/day. The NOAEL with dog [5] (setting [24]) was 15.5 mg/kg/day; in the data set on rat [6] (setting [25]) it was at least 60 mg/kg/day; in the data set with rat [6] (setting [26]), at least 60 mg/kg/day; in the data set with rat [6] (setting [27]) it was at least 60 mg/kg/day; with dog [7], 2.96 mg/kg/day.

`S=C([S-])NCCNC(=S)[S-].S=C([S-])NCCNC(=S)[S-].[Mn+2].[Zn+2]` [Mancozeb]: the LEL in the data set with dog [8] (setting [28]) was found to be 7.26 mg/kg/day; in the data set on dog [9] it was 28.6 mg/kg/day; in the data set on rat [10] (total) it was 17.8 mg/kg/day; with rat [11] (systemic / clinical chemistry / thyroid stimulating hormone (thyrotropin) (tsh) / thyroid stimulating hormone (=thyrotropin) (tsh)) it was 2.33 mg/kg/day; in the data set with rat [12] (setting [32]) it was 512 mg/kg/day; in the data set with rat [12] (setting [33]) it was 128 mg/kg/day. In addition, the LEL in the data set with rat [13] (setting [34]) stood at 2 mg/kg/day; in the data set on rat [13] (setting [35]) it was 128 mg/kg/day; in the data set with mouse [14], 167 mg/kg/day; in the data set with rat [15], 30 mg/kg/day; with rat [16] (setting [37]) it was 7.42 mg/kg/day. The LOAEL with dog [8] (setting [28]) is 7.26 mg/kg/day; in the data set with dog [9], 28.6 mg/kg/day; in the data set on rat [10] (total), 17.8 mg/kg/day; in the data set with rat [11] (setting [31]), 30.9 mg/kg/day; in the data set with rat [12] (setting [32]), 512 mg/kg/day; with rat [12] (setting [33]), 128 mg/kg/day. Besides, the lowest observed adverse effect level (LOAEL) with rat [13] (group: developmental, developmental / developmental malformation / bone / incomplete ossification + developmental / developmental malformation / brain / [other]) was 8 mg/kg/day; with rat [13] (setting [35]) it was 128 mg/kg/day; with mouse [14], 167 mg/kg/day; with rat [15], 30 mg/kg/day; in the data set with rat [16] (setting [37]), 7.42 mg/kg/day. Moreover, the NEL in the data set on dog [8] (setting [29]) amounted to 1.75 mg/kg/day; with dog [9] it was 2.98 mg/kg/day; with rat [10] (setting [30]), 9.24 mg/kg/day; in the data set on rat [11] (setting [31]), 0.77 mg/kg/day; in the data set with rat [12] (setting [32]) it was 128 mg/kg/day; in the data set on rat [12] (setting [33]) it was 32 mg/kg/day. Further, the NEL is below 2 mg/kg/day in the data set on rat [13] (setting [34]); 32 mg/kg/day with rat [13] (setting [36]); 18.1 mg/kg/day in the data set on mouse [14]; 5 mg/kg/day in the data set with rat [15]; 3.49 mg/kg/day in the data set with rat [16] (setting [38]). The NOAEL in the data set with dog [8] (setting [29]) was 1.75 mg/kg/day; with dog [9], 2.98 mg/kg/day; in the data set with rat [10] (setting [30]), 9.24 mg/kg/day; in the data set with rat [11] (setting [31]) it was 4.38 mg/kg/day; with rat [12] (setting [32]), 128 mg/kg/day; in the data set on rat [12] (setting [33]), 32 mg/kg/day. For the same compound, the no observed adverse effect level (NOAEL) in the data set on rat [13] (group: developmental, developmental / developmental malformation / bone / incomplete ossification + developmental / developmental malformation / brain / [other…) amounted to 2 mg/kg/day; in the data set with rat [13] (setting [36]) it was 32 mg/kg/day; with mouse [14] it was 18.1 mg/kg/day; in the data set with rat [15] it was 5 mg/kg/day; in the data set on rat [16] (setting [38]) it was 3.49 mg/kg/day.

In the data set with rat [17] (setting [39]), `CCOP(=O)([O-])C(N)=O.[NH4+]` [Fosamine ammonium] came in with an LEL of 50 mg/kg/day and an LOAEL of 50 mg/kg/day. Further, in the data set with rat [17] (setting [40]), the NEL was 10 mg/kg/day and the NOAEL is 10 mg/kg/day.

In the case of `ClC(Cl)=C(c1ccc(Cl)cc1)c1ccc(Cl)cc1` [p,p'-DDE], in the data set with mouse [18], the LEL was 22.2 mg/kg/day, the LOAEL was above 39.1 mg/kg/day, the NEL was below 22.2 mg/kg/day and the NOAEL was at least 39.1 mg/kg/day. Moreover, in the data set with rat [19] (setting [41]), the LOAEL amounted to 12.1 mg/kg/day and the NOAEL is below 12.1 mg/kg/day. Further, in the data set on rat [19] (setting [42]), the LEL amounted to 12.1 mg/kg/day and the NEL was below 12.1 mg/kg/day.
